Measurements from ChEMBL document CHEMBL4725478, “Spiroindoline-Capped Selective HDAC6 Inhibitors: Design, Synthesis, Structural Analysis, and Biological Evaluation” (ACS Med Chem Lett, 2020).
Calls of active or inactive are those of the source. The calls are words filed in the database; no cut-off is given here.

Tests used:
[1] = target: T1, Protein deacetylase HDAC6 (Homo sapiens) (UniProt Q9UBN7); assay: Inhibition of full length N-terminal GST-tagged human HDAC6 expressed in baculovirus expression system at 1 uM using ZMAL as substrate incubated for 90 mins by fluorescence assay relative to control
T1 sequence (whole entry): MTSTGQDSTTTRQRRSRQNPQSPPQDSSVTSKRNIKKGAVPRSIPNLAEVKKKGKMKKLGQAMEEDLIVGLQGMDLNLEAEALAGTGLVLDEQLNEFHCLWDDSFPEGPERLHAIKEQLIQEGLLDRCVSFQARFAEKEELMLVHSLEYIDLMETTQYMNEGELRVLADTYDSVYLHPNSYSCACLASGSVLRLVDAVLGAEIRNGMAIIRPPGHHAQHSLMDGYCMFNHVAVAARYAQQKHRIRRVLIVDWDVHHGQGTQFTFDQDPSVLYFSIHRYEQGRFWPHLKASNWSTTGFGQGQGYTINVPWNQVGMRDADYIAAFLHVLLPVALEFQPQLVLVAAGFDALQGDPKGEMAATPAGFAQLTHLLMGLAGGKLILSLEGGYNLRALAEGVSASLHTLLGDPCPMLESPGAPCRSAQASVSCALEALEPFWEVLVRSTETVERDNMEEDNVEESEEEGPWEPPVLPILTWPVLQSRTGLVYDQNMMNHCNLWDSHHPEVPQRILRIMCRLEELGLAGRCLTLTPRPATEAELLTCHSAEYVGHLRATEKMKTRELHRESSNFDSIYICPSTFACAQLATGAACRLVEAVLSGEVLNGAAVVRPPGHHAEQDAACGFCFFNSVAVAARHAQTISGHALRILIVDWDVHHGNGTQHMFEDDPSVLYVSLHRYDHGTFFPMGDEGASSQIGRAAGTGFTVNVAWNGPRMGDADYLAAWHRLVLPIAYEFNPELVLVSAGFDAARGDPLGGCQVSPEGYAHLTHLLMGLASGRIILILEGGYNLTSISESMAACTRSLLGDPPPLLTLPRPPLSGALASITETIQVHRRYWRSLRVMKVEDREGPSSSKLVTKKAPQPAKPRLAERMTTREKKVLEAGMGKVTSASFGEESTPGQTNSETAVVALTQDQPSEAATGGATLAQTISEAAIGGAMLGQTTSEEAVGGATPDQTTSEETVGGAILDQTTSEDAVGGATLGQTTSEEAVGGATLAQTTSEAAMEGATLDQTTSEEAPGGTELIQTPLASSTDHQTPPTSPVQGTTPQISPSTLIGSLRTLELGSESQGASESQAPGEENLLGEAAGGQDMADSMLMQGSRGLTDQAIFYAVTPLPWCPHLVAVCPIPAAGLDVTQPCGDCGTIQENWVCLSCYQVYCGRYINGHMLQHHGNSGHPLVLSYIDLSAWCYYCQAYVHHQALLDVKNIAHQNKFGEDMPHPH

Histone deacetylase 1 [2] = target: T2, Histone deacetylase 1 (Homo sapiens, UniProt Q13547); assay: Inhibition of full length C-terminal His/FLAG-tagged human HDAC1 expressed in baculovirus expression system at 1 uM using ZMAL as substrate incubated for 90 mins by fluorescence assay relative to control
[3] = Antiproliferative activity against human TR-146 cells assessed as reduction in cell viability measured after 48 hrs by alamar blue dye based spectrofluorometry; assay type: functional; conditions: TR146, 48 h
[4] = target: T3, Protein deacetylase HDAC6 (Homo sapiens, UniProt Q9UBN7); assay: Inhibition of full length N-terminal GST-tagged human HDAC6 expressed in baculovirus expression system using ZMAL as substrate incubated for 90 mins by fluorescence assay
T3 sequence (Q9UBN7 whole entry): T1 sequence (whole entry)

Histone deacetylase 1 [5] = target: T2, Histone deacetylase 1; assay: Inhibition of full length C-terminal His/FLAG-tagged human HDAC1 expressed in baculovirus expression system using ZMAL as substrate incubated for 90 mins by fluorescence assay
Ca9-22 = assay: Antiproliferative activity against human Ca9-22 cells assessed as reduction in cell viability measured after 48 hrs by alamar blue dye based spectrofluorometry; assay type: functional; conditions: Ca9-22, 48 h
Homo sapiens [6] = species on record: Homo sapiens; assay: Selectivity ratio of IC50 for full length C-terminal His/FLAG-tagged human HDAC1 expressed in baculovirus expression system to IC50 full length N-terminal GST-tagged human HDAC6 expressed in baculovirus expression system
KYSE-520 cell line = assay: Antiproliferative activity against human KYSE520 cells assessed as reduction in cell viability measured after 48 hrs by alamar blue dye based spectrofluorometry; assay type: functional; conditions: KYSE-520, 48 h
[7] = target: T1, Protein deacetylase HDAC6 (Homo sapiens); assay: Inhibition of HDAC6 in human NB-4 cells assessed as increase in tubulin acetylation at 10 uM measured after 24 to 48 hrs by Western blot analysis; assay type: cell-based; conditions: time hrs 24-48
NB-4 [8] = assay: Induction of apoptosis in human NB-4 cells assessed as increase in cleaved PARP expression at 10 uM measured after 24 to 48 hrs by Western blot analysis; assay type: functional, cell-based; conditions: time hrs 24-48
NB-4 [9] = assay: Cell cycle arrest in human NB-4 cells at 5 to 10 uM measured after 24 to 48 hrs by propidium iodide staining based flow cytometry; assay type: functional; conditions: dose microM 5-10, time hrs 24-48
Histone deacetylase = assay: Inhibition of HDAC in human NB-4 cells assessed as effect on histone acetylation at 10 uM measured after 24 to 48 hrs by Western blot analysis; assay type: cell-based; conditions: nb-4, 10 µM, time 24-48 hrs
OE33 = assay: Antiproliferative activity against human OE33 cells assessed as reduction in cell viability measured after 72 hrs by MTT assay; assay type: functional, cell-based; conditions: OE33, 72 h
[10] = Cytotoxicity against mouse NIH3T3 cells assessed as reduction in cell viability measured after 24 hrs by neutral red uptake assay; assay type: cell-based; conditions: read-out: TC50
[11] = Mutagenicity in Salmonella typhimurium TA100 at 24 to 40 uM measured after 90 mins in absence of S9 fraction by Ames test; assay type: toxicity; conditions: salmonella enterica subsp. enterica serovar typhimurium, s9, 1.5 h, dose 24-40 µM
[12] = Mutagenicity in Salmonella typhimurium TA98 at 8 to 160 uM measured after 90 mins in absence of S9 fraction by Ames test; assay type: toxicity; conditions: salmonella enterica subsp. enterica serovar typhimurium, s9, 1.5 h, dose 8-160 µM
[13] = Mutagenicity in Salmonella typhimurium TA100 at 24 to 40 uM measured after 90 mins in presence of S9 fraction by Ames test; assay type: toxicity, subcellular; conditions: salmonella enterica subsp. enterica serovar typhimurium, s9, 1.5 h, dose 24-40 µM
[14] = target: T1, Protein deacetylase HDAC6 (Homo sapiens); assay: Inhibition of HDAC6 in human MEC1 cells assessed as reduction in STAT3 phosphorylation at 5 to 10 uM measured after 30 hrs by immunoblot assay; assay type: cell-based; conditions: dose microM 5-10, time 30.0 hrs
[15] = Mutagenicity in Salmonella typhimurium TA98 at 8 to 160 uM measured after 90 mins in presence of S9 fraction by Ames test; assay type: toxicity, subcellular; conditions: salmonella enterica subsp. enterica serovar typhimurium, s9, 1.5 h, dose 8-160 µM
Homo sapiens [16] = species on record: Homo sapiens; assay: Selectivity ratio of IC50 for human recombinant HDAC8 expressed in Escherichia coli to IC50 full length N-terminal GST-tagged HDAC6 expressed in baculovirus expression system
Histone deacetylase 8 = target: T4, Histone deacetylase 8 (Homo sapiens, UniProt Q9BY41); assay: Inhibition of human recombinant HDAC8 expressed in Escherichia coli using Fluor de Lys substrate preincubated for 15 mins followed by substrate addition and measured after 60 mins by fluorescence assay
T4 sequence (Q9BY41 whole entry): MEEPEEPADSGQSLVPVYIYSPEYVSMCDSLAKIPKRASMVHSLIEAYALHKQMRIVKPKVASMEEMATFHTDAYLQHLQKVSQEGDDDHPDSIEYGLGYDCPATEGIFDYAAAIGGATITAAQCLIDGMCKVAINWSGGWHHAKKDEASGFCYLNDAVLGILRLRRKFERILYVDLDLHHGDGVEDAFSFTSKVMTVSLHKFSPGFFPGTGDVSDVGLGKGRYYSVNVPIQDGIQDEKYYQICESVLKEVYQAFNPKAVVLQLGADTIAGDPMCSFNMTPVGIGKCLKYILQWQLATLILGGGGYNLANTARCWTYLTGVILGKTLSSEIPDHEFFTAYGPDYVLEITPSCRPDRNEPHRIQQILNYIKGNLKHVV

[17] = target: T1, Protein deacetylase HDAC6 (Homo sapiens); assay: Inhibition of HDAC6 in human U-266 cells assessed as reduction in STAT3 phosphorylation at 25 uM measured after 4 to 48 hrs by immunoblot assay; assay type: cell-based; conditions: time hrs 4-48
[18] = Antiproliferative activity against human U266B cells assessed as reduction in cell viability measured after 24 to 48 hrs by alamar blue dye based fluorescence assay; assay type: functional
NB-4 [19] = assay: Cell cycle arrest in human NB-4 cells at 5 to 10 uM measured after 48 hrs by propidium iodide staining based flow cytometry; assay type: functional; conditions: dose microM 5-10, time 48.0 hrs
U-937 = assay: Cell cycle arrest in human U-937 cells assessed as increase in accumulation at pre-G1 phase at 10 uM measured after 48 hrs by propidium iodide staining based flow cytometry; assay type: functional
[20] = target: T1, Protein deacetylase HDAC6 (Homo sapiens); assay: Inhibition of HDAC6 in human U-266 cells assessed as reduction in STAT3 phosphorylation measured after 4 to 48 hrs by immunoblot assay; assay type: cell-based; conditions: time hrs 4-48
[21] = target: T1, Protein deacetylase HDAC6 (Homo sapiens); assay: Inhibition of HDAC6 in human MEC1 cells assessed as reduction in STAT3 phosphorylation measured after 30 hrs by immunoblot assay; assay type: cell-based
U266B = assay: Induction of apoptosis in human U266B cells at 25 to 50 uM measured after 48 hrs by Annexin-V/propidium iodide staining based flow cytometry; assay type: functional, cell-based; conditions: dose microM 25-50, time 48.0 hrs

T2 sequence (Q13547 whole entry): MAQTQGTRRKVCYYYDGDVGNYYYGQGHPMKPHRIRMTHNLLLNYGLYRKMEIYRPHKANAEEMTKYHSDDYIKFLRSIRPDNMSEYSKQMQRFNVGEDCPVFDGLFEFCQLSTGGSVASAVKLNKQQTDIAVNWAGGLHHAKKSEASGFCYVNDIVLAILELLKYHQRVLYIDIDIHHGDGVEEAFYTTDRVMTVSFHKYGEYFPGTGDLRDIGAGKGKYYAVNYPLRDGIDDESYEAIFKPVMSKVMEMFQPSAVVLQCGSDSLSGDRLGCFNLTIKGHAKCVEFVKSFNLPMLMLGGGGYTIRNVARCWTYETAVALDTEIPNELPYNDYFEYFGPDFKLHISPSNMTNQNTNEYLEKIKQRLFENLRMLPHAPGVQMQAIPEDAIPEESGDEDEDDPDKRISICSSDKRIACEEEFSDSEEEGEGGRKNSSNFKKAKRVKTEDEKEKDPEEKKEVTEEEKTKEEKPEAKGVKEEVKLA

SMILES | inhibition [1] | inhibition (Histone deacetylase 1 [2]) | IC50 [3] | IC50 [4] | IC50 (Histone deacetylase 1 [5]) | IC50 (Ca9-22) | Ratio IC50 (Homo sapiens [6]) | IC50 (OE33) | IC50 (Histone deacetylase 8) | other results
CN1CC2(CCN(Cc3ccc(C(=O)NO)s3)CC2)c2cccc(-c3ccccc3)c21 | 51.3% | 6.6% | – | – | – | – | – | – | – | –
O=C(NO)c1ccc(CN2CCC3(CC2)CN(C(=O)c2ccccc2)c2ccccc23)cc1 | – | – | > 1000 µM | 0.155 µM | 10.1 µM | > 1000 µM | 65 | – | – | –
CC(C)(C)OC(=O)N1CCC2(CC1)CN(Cc1ccc(C(=O)NO)cc1)c1ccccc12 | – | – | – | – | – | – | 95 | – | – | –
O=C(NO)c1ccc(CC(=O)N2CCC3(CC2)CN(Cc2ccccc2)c2ccccc23)cc1 | – | – | 54 µM | 0.227 µM | 10.2 µM | > 1000 µM | 45 | 13.8 µM | – | IC50 (KYSE-520 cell line): 33.8 µM; inhibition [7]: Active; Activity (NB-4 [8]): Active; Activity (NB-4 [9]): Active; inhibition (INH) (Histone deacetylase): Not Active
O=C(NO)c1ccc(CN2CCC3(CC2)CN(C(=O)c2ccccc2)c2c(-c4ccccc4)cccc23)cc1 | – | – | – | 0.465 µM | 4.7 µM | – | 10 | – | – | –
CN1CC2(CCN(Cc3ccc(C(=O)NO)cc3)CC2)c2ccccc21 | – | – | > 1000 µM | 0.264 µM | 22.4 µM | > 1000 µM | 85 | 17.7 µM | 1.91 µM | CC50 at 24 h [10]: 24 µM; Activity [11]: Toxic; IC50 (KYSE-520 cell line): 197 µM; Activity [12]: Non-Toxic; Activity [13]: Toxic; inhibition [14]: Active; Activity [15]: Non-Toxic; Ratio IC50 (Homo sapiens [16]): 7; inhibition [17]: Active
O=C(NO)c1ccc(CN2CCC3(CC2)CN(Cc2ccccc2)c2c(-c4ccccc4)cccc23)cc1 | 29.7% | 2.9% | – | – | – | – | – | – | – | –
O=C(NO)c1ccc(CNC(=O)N2CCC3(CC2)CN(Cc2ccccc2)c2ccccc23)cc1 | – | – | > 1000 µM | 0.11 µM | 3.6 µM | 55 µM | 33 | – | 2.48 µM | IC50 [18]: 59.4 µM
CN1CC2(CCN(Cc3ccc(C(=O)NO)cc3)CC2)c2cccc(-c3ccccc3)c21 | 50% | 8.5% | – | – | – | – | – | – | – | –
O=C(NO)c1ccc(COC(=O)N2CCC3(CC2)CN(Cc2ccccc2)c2ccccc23)cc1 | – | – | 133 µM | 0.0485 µM | 6.8 µM | > 1000 µM | 140 | 37.8 µM | 3.19 µM | CC50 at 24 h [10]: 40 µM; Activity (NB-4 [19]): Active; Activity [11]: Toxic; inhibition [7]: Active; Activity (NB-4 [8]): Active; Activity [13]: Toxic; inhibition (INH) (Histone deacetylase): Not Active; Activity (U-937): Active; IC50 [18]: 20.2 µM; inhibition [20]: Dose-dependent effect; inhibition [21]: Dose-dependent effect; Activity (U266B): Active
